The record followed here is patent publication US20240158359A1, “HYDROLYSIS-RESISTANT ESTERS FOR DRUG AND IMAGING AGENT DELIVERY” (The Board of Trustees of the University of lllinois, priority 2022, published 2024).

One data set has as its target NTR (Escherichia coli, UniProt P38489). How it is done: Dose-dependence Activation of BL660-NTR (FIG. 4a) by NTR: The response of BL660-NTR (5 μM) against different concentrations of NTR was measured in a 96-well culture plate and was monitored using the IVIS imaging system. BL660-NTR was incubated with either 0.01 U or 0.1 U NTR at 37° C. for 15 min before the wells were treated with ATP-MgSO4 and luciferase to initiation bioluminescence production. Light was collected immediately after mixing, and the signal enhancement was determined relative to control wells not treated with enzyme. The total volume of each well was 100 μL (PBS (pH 7.4) with 0.5% DMSO). All data is reported as the mean±standard deviation (n=5).

Data set [1] concerns A549 cells. In words: MTT cytotoxicity assay of BL660-NTR. The format is cell-based. Conditions: 0 to 20 μM, up to 3 hours. How it is done: Prior to testing BL660-NTR in vivo, we assessed potential cytotoxicity by treating A549 cells with BL660-NTR across a concentration range of 0 to 20 μM for up to 3 hours.
MTT Cytotoxicity Assay. 24-well plates were seeded with 180,000 cells per well (500 μL of 360,000 cells/mL) and incubated at 37° C. with 5% CO2 for 24 h (˜70% confluent). Media was removed and fresh RPMI 1640 media with 10% FBS containing 0, 5, 10 or 20 μM BL660-NTR (1% DMSO final v/v) was added. The media was removed after 1 and 3 h and replaced with 500 μL of a 20:1 mixture of FBS-free RPMI 1640 and (3-(4,5-dimethylthiazol-2-yl)-2,5-diphenyl-tetrazolium bromide (MTT, 5 mg/mL stock in PBS). The cells were incubated for 2 h under the same conditions and then the medium was removed and replaced with DMSO (500 μL/well). The absorbance of each well was recorded after a 1:5 dilution in DMSO at 555 nm on a microplate reader. Viability was calculated by the absorbance relative to the vehicle control. Values are reported as the mean±standard deviation (n=3).

Data set [2] relates to A549 cells. The experiment in a line: Detection of NTR activity in A549 lung cancer cells cultured in hypoxia or normoxia, lysate BL imaging. The data set is classed as cell-based. As for the experimental part: Next, we performed a cell imaging study to measure hypoxia within a living system. Specifically, A549 cells (not expressing Luc) were cultured in an atmosphere consisting of 1% or 20% oxygen for 2 days to mimic hypoxic conditions (1%) or normoxic (20%), respectively. Because aryl nitro reduction mediated by mammalian NTRs can be inhibited by molecular oxygen, we expect there to be greater probe activation under oxygen-deficient conditions. After incubating with BL660-NTR for 60 minutes, the cells were washed with fresh PBS, detached, pelleted, and lysed via sonication. The lysates were then transferred to 24-well plates, treated with luciferase and imaged immediately using the IVIS imaging system. […] This represents a significant 4.5-fold difference in BL intensity.
A549 cells were seeded in T75 culture flasks and incubated in 1% or 20% oxygen atmosphere for 48 hours. A solution of BL660-NTR in DMSO (2 mM, 50 μL) was quickly added into each flask such that the final concentration of the probe is 10 μM and 0.5% DMSO. The cells were incubated with the probe for 60 minutes (under the respective culture conditions), washed with fresh PBS, and detached from the culture flasks. The cells were then transferred to a 15 mL centrifuge tube and pelleted at 1000 rpm for 5 min at room temp. The cells (4.25×10^6 cells/mL) were then resuspended in PBS along with 10% protease inhibitor solution (1 protease inhibitor mini tablet per 10 mL PBS, Pierce, Thermo Fisher Scientific) and sonicated on ice for 2.5 minutes (pulse 01, 01, 40%). The cell debris was removed via centrifugation at 4° C. The cell lysates were further diluted 2.5-fold by PBS and 475 μL were transferred into 24-well plates (n=4 for each condition), treated with luciferase (25 μL, 0.25 mg/mL), and imaged immediately using the IVIS imaging system. Bioluminescence light was collected in open mode (no filters were applied). ROIs were drawn around each well. The signal intensity was quantified using the Living Image Analysis Software.

For data set [3] the following is noted: 5 μM, 50 equiv analyte, 37° C., 30 min.
Protocol: For instance, transition metals like Cu(II) can facilitate ester hydrolysis via Lewis acid-mediated ester activation. Additionally, various reactive oxygen and nitrogen that can interact with the ester bond were also tested. Lastly, we also examined reactive sulfur species, which are known to reduce aryl nitro groups.
Analyte Selectivity Assay for BL660-NTR. […] Light was collected within 15 min after mixing, and the signal enhancement was determined relative to control wells not treated with analyte. The total volume of each well was 100 μL [PBS (pH 7.4) with 0.5% DMSO]. Metal ion solutions were prepared by dissolving in MilliQ H2O before use. Superoxide anion was added as a solution of potassium superoxide in DMSO. Hydroxide radical was generated according to the previously reported literature. Similarly, peroxynitrite was prepared according to the reported literature. NO was generated in situ from a solution of DEA-NONOate in degassed PBS buffer. Glutathione reduced form was maintained at the final concentration of 5 mM in the reaction mixture. H2S was generated just before use according to the reported literature. NTR was used one unit per well. All other analytes were prepared by dilution or dissolution from commercially available sources.
The next data set relates to A549-Luc2 tumors. In words: BL imaging of tumor hypoxia in a lung cancer model. The data set is classed as in vivo, NU/J mice. How it is done:
NU/J mice (male, ˜5-weeks old) were inoculated with A549-Luc2 lung cancer cells (5×10^6) in both flanks. Testing of BL660-NTR commenced after tumors had grown to a volume of ˜300 mm^3 (˜4 weeks). First, we performed imaging using BL660-NTR, which was administered systemically via retroorbital injection (ROI) (FIG. 5a (upper horizontal row of points) and FIG. 14). ROIs were drawn around each tumor and the luminescent count was summed for each animal. […] The BL intensity appears to decrease slightly after 15 mins and levels off until the end of the experiment (75 mins) (FIG. 5c).
Next, to distinguish between NTR activation and off-target ester hydrolysis, we employed Compound (4) as a control reagent, which only differs in that the nitro trigger is absent (FIG. 1a). After approximately 20 hours, the same animals were treated with Compound (4) and imaged (FIG. 5b and FIG. 15). This delay was to ensure the probe had fully cleared from the first experiment. […] The total luminescent count after 15 mins for Compound 4 was only 4.0±0.7×10^3; whereas the corresponding readout was 16.6±2.5×10^3 for BL660-NTR. This represents a […] difference, indicating successful detection of tumor hypoxia (FIG. 5d).
NU/J mice bearing A549-Luc2 tumors were anesthetized using isoflurane (1-3% for maintenance; up to 5% for induction) in oxygen from a precision vaporizer. After testing to ensure animals are fully under anesthesia, an initial background scan is recorded. BL660-NTR or compound 4 formulated in 3:7 v/v DMSO:PBS. The solution was filtered through a […] sterile filter immediately prior to use. The typical injection volume is ˜100 μM at a dose of 2.2 μmol/kg. The solution was then administered via retroorbital injection. Images were captured using the IVIS® imaging system at 5, 15, 30, 45, 60, and 75 minutes after injection. Bioluminescence light was collected in open mode (no filters were applied). Regions of interest (“ROIs”) were drawn around each tumor and summed for each animal. The signal intensity was quantified using the Living Image Analysis Software and is represented in FIGS. 5c and 5d.
Generation of a Subcutaneous Lung Cancer Model: A549 cells were treated with vehicle (media only) or 50 μM DETA NONOate in media for 10 days. Cells were washed with PBS, resuspended in serum-free media (Hams F-12K), and mixed 1:1 with Geltrex (v/v) (to a final concentration of 5×10^7 cells/mL). Tumors were generated by subcutaneously injecting 100 μL of these cell solutions into the flanks of 4-week-old Nu/J mice (The Jackson Laboratory stock #: 002019).
BL660-NTR was dissolved in DMSO and diluted with PBS (3:7 v/v DMSO:PBS). The solution was filtered through a […] sterile filter immediately prior to use. The typical injection volume is ˜100 μM at a dose of 2.2 μmol/kg.
Compound 4 was dissolved in DMSO and diluted with PBS (3:7 v/v DMSO:PBS). The solution was filtered through a […] sterile filter immediately prior to use. The typical injection volume is ˜100 μM at a dose of 2.2 μmol/kg.

Sequence of NTR (P38489 whole entry): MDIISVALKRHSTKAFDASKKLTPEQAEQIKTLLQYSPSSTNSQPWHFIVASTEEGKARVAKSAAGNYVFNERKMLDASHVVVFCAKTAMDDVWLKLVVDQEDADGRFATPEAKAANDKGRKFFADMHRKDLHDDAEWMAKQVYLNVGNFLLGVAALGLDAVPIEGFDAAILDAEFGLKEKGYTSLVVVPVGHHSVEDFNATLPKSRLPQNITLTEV

Regarding `CCN(CC)c1ccc(C=CC=CC2=NC(C(=O)OC(c3ccc([N+](=O)[O-])cc3)C(C)C)CS2)cc1` (stereo not shown) [BL660-NTR], the “total luminescence signal, NTR absent” value at NTR (BL660-NTR 5 μM and luciferase without NTR) is listed as “significantly attenuated”. Moreover, on NTR (BL660-NTR 5 μM, NTR 0.1 units, luciferase 0.0125 mg/mL), the “total luminescence count, probe, NTR and luciferase all present” value is on record as “notable increase in the total luminescence count”. Moreover, the cell viability result with A549 cells [1] was “No loss of cell viability”. The “difference in BL intensity, hypoxic versus normoxic” value with A549 cells [2] (1% versus 20% oxygen) turned out to be 4.5 fold. Also, the “total luminescent counts, hypoxic lysates” value in the data set on A549 cells [2] (A549 cells in 1% oxygen for 2 days, 10 μM probe 60 minutes) is recorded as 5.0±0.1×10^5 total luminescent counts. Moreover, the “total luminescent counts, normoxic lysates” value in the data set on A549 cells [2] (A549 cells in 20% oxygen for 2 days, 10 μM probe 60 minutes) is recorded as 1.1±0.03×10^5 total luminescent counts. In addition, in data set [3], the “activation by analytes compared to the NTR positive control” value is listed as at most 10%. In addition, the “BL signal in the tumors (in words)” value with A549-Luc2 tumors (5 to 75 min after retroorbital injection, 2.2 μmol/kg) is “strong BL signals were apparent in all tumors”. In the data set on A549-Luc2 tumors (15 mins after retroorbital injection), the “difference in total luminescent count, BL660-NTR versus Compound 4” value came out at 5.2 fold. In addition, in the data set on A549-Luc2 tumors (15 mins after retroorbital injection, 2.2 μmol/kg, NU/J mice with A549-Luc2 tumors), the “total luminescent count in tumors after 15 mins” value was 16.6±2.5×10^3 total luminescent count.
